Where “and” joins values, the source holds several entries; their conditions need not be identical. Equal values may be shown once. Numbers after ± are expanded uncertainties.
Test: xn = mol fraction of the nth substance listed
Conditions: 100 kPa, Liquid; for viscosity: Concentric cylinders viscometry; for mass density: Vibrating tube method; for electrical conductivity: Alternating current cell with electrodes

With CCCCCCCCOS(=O)(=O)[O-].CCn1cc[n+](C)c1 [1-ethyl-3-methylimidazolium octyl sulfate] + O the viscosity (293.1 K, x1 = 0.3555) was 136.9 ± 9.7 mPa·s, the viscosity (293.1 K, x1 = 0.4108) was 154.7 ± 11 mPa·s and the mass density (293.1 K, x1 = 0.1197) was 1069.2 ± 1 kg/m3. For the same compound, the mass density (293.1 K, x1 = 0.1402) was 1072.6 ± 1 kg/m3, the mass density (293.1 K, x1 = 0.1605) was 1076.1 ± 1 kg/m3 and 1076.2 ± 1 kg/m3 and the mass density (293.1 K, x1 = 0.2632) was 1085.4 ± 1 kg/m3. It also gave a mass density (293.1 K, x1 = 0.3076) of 1087.6 ± 1 kg/m3, a mass density (293.1 K, x1 = 0.3555) of 1089.2 ± 1 kg/m3 and a mass density (293.1 K, x1 = 0.4108) of 1091.1 ± 1 kg/m3. The electrical conductivity (294.1 K, x1 = 0.1766) was 1 S/m, the electrical conductivity (294.1 K, x1 = 0.2119) was 0.826 S/m and 0.828 S/m and the electrical conductivity (294.1 K, x1 = 0.2632) was 0.585 ± 0.012 S/m. The viscosity (294.1 K, x1 = 0.1402) was 66.11 ± 4.3 mPa·s, the mass density (294.1 K, x1 = 0.1402) was 1072 ± 1 kg/m3 and the electrical conductivity (295.1 K, x1 = 0.0803) was 1.81 ± 0.038 S/m. The electrical conductivity (295.1 K, x1 = 0.1766) was 1.03 S/m, the electrical conductivity (295.1 K, x1 = 0.2119) was 0.85 S/m and 0.852 S/m and the electrical conductivity (295.1 K, x1 = 0.2632) was 0.606 ± 0.014 S/m. The electrical conductivity (295.1 K, x1 = 0.3555) was 0.387 S/m and 0.389 S/m, the electrical conductivity (295.1 K, x1 = 0.4108) was 0.32 ± 0.007 S/m and the viscosity (295.1 K, x1 = 0.1402) was 62.58 ± 4 mPa·s. For the same compound, the mass density (295.1 K, x1 = 0.1402) was 1071.3 ± 1 kg/m3, the electrical conductivity (296.1 K, x1 = 0.1605) was 1.18 S/m and the electrical conductivity (296.1 K, x1 = 0.1766) was 1.05 S/m and 1.06 S/m. For the same compound, the electrical conductivity (296.1 K, x1 = 0.2119) was 0.873 S/m and 0.875 S/m, the electrical conductivity (296.1 K, x1 = 0.2632) was 0.628 ± 0.013 S/m and the electrical conductivity (296.1 K, x1 = 0.3076) was 0.531 S/m and 0.533 S/m. For the same compound, the electrical conductivity (296.1 K, x1 = 0.4688) was 0.258 ± 0.006 S/m, the viscosity (296.1 K, x1 = 0.1402) was 59.29 ± 3.8 mPa·s and the mass density (296.1 K, x1 = 0.1402) was 1070.6 ± 1 kg/m3. The electrical conductivity (297.1 K, x1 = 0.1766) was 1.08 S/m, the electrical conductivity (297.1 K, x1 = 0.2119) was 0.9 ± 0.019 S/m and the electrical conductivity (297.1 K, x1 = 0.2632) was 0.651 ± 0.015 S/m. For the same compound, the viscosity (297.1 K, x1 = 0.1402) was 56.2 ± 3.6 mPa·s, the mass density (297.1 K, x1 = 0.1402) was 1069.9 ± 1 kg/m3 and the electrical conductivity (298.1 K, x1 = 0.0401) was 2.16 S/m. The electrical conductivity (298.1 K, x1 = 0.0586) was 2.14 S/m, the electrical conductivity (298.1 K, x1 = 0.0803) was 1.96 ± 0.04 S/m and the electrical conductivity (298.1 K, x1 = 0.1197) was 1.56 S/m. The electrical conductivity (298.1 K, x1 = 0.1402) was 1.38 S/m, the electrical conductivity (298.1 K, x1 = 0.1605) was 1.25 S/m and the electrical conductivity (298.1 K, x1 = 0.1766) was 1.11 S/m. For the same compound, the electrical conductivity (298.1 K, x1 = 0.2119) was 0.925 S/m and 0.921 S/m, the electrical conductivity (298.1 K, x1 = 0.2632) was 0.675 S/m and 0.669 S/m and the electrical conductivity (298.1 K, x1 = 0.3076) was 0.573 S/m and 0.572 S/m. For the same compound, the electrical conductivity (298.1 K, x1 = 0.3555) was 0.434 S/m and 0.435 S/m, the electrical conductivity (298.1 K, x1 = 0.4108) was 0.358 S/m and 0.355 S/m and the electrical conductivity (298.1 K, x1 = 0.4688) was 0.287 S/m and 0.254 S/m. The electrical conductivity (298.1 K, x1 = 0.5001) was 0.241 S/m and 0.236 S/m, the viscosity (298.1 K, x1 = 0.1197) was 46.3 ± 2.9 mPa·s and 46.17 ± 2.9 mPa·s and the viscosity (298.1 K, x1 = 0.1402) was 53.29 ± 3.4 mPa·s. The viscosity (298.1 K, x1 = 0.1605) was 59.39 ± 3.8 mPa·s and 57.63 ± 3.7 mPa·s, the viscosity (298.1 K, x1 = 0.2632) was 80.58 ± 5.3 mPa·s and 82.1 ± 5.4 mPa·s and the viscosity (298.1 K, x1 = 0.3076) was 89.42 ± 5.9 mPa·s. For the same compound, the viscosity (298.1 K, x1 = 0.3555) was 104.1 ± 7 mPa·s and 104 ± 7 mPa·s, the viscosity (298.1 K, x1 = 0.4108) was 118 ± 8.1 mPa·s and the mass density (298.1 K, x1 = 0.1197) was 1065.5 ± 1 kg/m3 and 1065.9 ± 1 kg/m3. For the same compound, the mass density (298.1 K, x1 = 0.1402) was 1069.3 ± 1 kg/m3, the mass density (298.1 K, x1 = 0.1605) was 1072.8 ± 1 kg/m3 and 1072.7 ± 1 kg/m3 and the mass density (298.1 K, x1 = 0.2632) was 1081.9 ± 1 kg/m3 and 1081.7 ± 1 kg/m3. The mass density (298.1 K, x1 = 0.3076) was 1084.1 ± 1 kg/m3, the mass density (298.1 K, x1 = 0.3555) was 1085.8 ± 1 kg/m3 and the mass density (298.1 K, x1 = 0.4108) was 1087.7 ± 1 kg/m3. The electrical conductivity (303.1 K, x1 = 0.5001) was 0.295 ± 0.006 S/m, the viscosity (303.1 K, x1 = 0.1605) was 45.8 ± 2.9 mPa·s and the viscosity (303.1 K, x1 = 0.2632) was 62.15 ± 4 mPa·s. The viscosity (303.1 K, x1 = 0.3076) was 69.23 ± 4.5 mPa·s, the viscosity (303.1 K, x1 = 0.3555) was 80.49 ± 5.3 mPa·s and the viscosity (303.1 K, x1 = 0.4108) was 91.61 ± 6.1 mPa·s. For the same compound, the mass density (303.1 K, x1 = 0.1605) was 1069.3 ± 1 kg/m3, the mass density (303.1 K, x1 = 0.2632) was 1078.5 ± 1 kg/m3 and the mass density (303.1 K, x1 = 0.3076) was 1080.7 ± 1 kg/m3. For the same compound, the mass density (303.1 K, x1 = 0.3555) was 1082.4 ± 1 kg/m3, the mass density (303.1 K, x1 = 0.4108) was 1084.3 ± 1 kg/m3 and the viscosity (308.1 K, x1 = 0.1605) was 35.89 ± 2.2 mPa·s. It also gave a viscosity (308.1 K, x1 = 0.2632) of 48.72 ± 3.1 mPa·s, a viscosity (308.1 K, x1 = 0.3076) of 54.47 ± 3.4 mPa·s and a viscosity (308.1 K, x1 = 0.3555) of 63.27 ± 4 mPa·s. It also gave a viscosity (308.1 K, x1 = 0.4108) of 72.28 ± 4.7 mPa·s, a mass density (308.1 K, x1 = 0.1605) of 1065.9 ± 1 kg/m3 and a mass density (308.1 K, x1 = 0.2632) of 1075 ± 1 kg/m3. The mass density (308.1 K, x1 = 0.3076) was 1077.2 ± 1 kg/m3, the mass density (308.1 K, x1 = 0.3555) was 1079 ± 1 kg/m3 and the mass density (308.1 K, x1 = 0.4108) was 1080.9 ± 1 kg/m3. It also gave an electrical conductivity (313.1 K, x1 = 0.5001) of 0.42 ± 0.008 S/m, a viscosity (313.1 K, x1 = 0.1197) of 23.09 ± 1.4 mPa·s and a viscosity (313.1 K, x1 = 0.1605) of 28.53 ± 1.8 mPa·s. For the same compound, the viscosity (313.1 K, x1 = 0.2632) was 40.23 ± 2.5 mPa·s, the viscosity (313.1 K, x1 = 0.3076) was 43.26 ± 2.7 mPa·s and the viscosity (313.1 K, x1 = 0.3555) was 50.46 ± 3.2 mPa·s. It also gave a viscosity (313.1 K, x1 = 0.4108) of 57.88 ± 3.7 mPa·s, a mass density (313.1 K, x1 = 0.1197) of 1055.4 ± 1 kg/m3 and a mass density (313.1 K, x1 = 0.1605) of 1062.4 ± 1 kg/m3. It also gave a mass density (313.1 K, x1 = 0.2632) of 1072.9 ± 1 kg/m3, a mass density (313.1 K, x1 = 0.3076) of 1072.2 ± 1 kg/m3 and a mass density (313.1 K, x1 = 0.3555) of 1075.6 ± 1 kg/m3. For the same compound, the mass density (313.1 K, x1 = 0.4108) was 1077.6 ± 1 kg/m3, the viscosity (318.1 K, x1 = 0.3076) was 36.02 ± 2.2 mPa·s and the viscosity (318.1 K, x1 = 0.3555) was 40.79 ± 2.5 mPa·s. For the same compound, the viscosity (318.1 K, x1 = 0.4108) was 46.97 ± 2.9 mPa·s, the mass density (318.1 K, x1 = 0.3076) was 1070.1 ± 1 kg/m3 and the mass density (318.1 K, x1 = 0.3555) was 1072.2 ± 1 kg/m3. It also gave a mass density (318.1 K, x1 = 0.4108) of 1074.2 ± 1 kg/m3, an electrical conductivity (323.1 K, x1 = 0.5001) of 0.58 ± 0.012 S/m and a viscosity (323.1 K, x1 = 0.3555) of 33.03 ± 2 mPa·s. It also gave a viscosity (323.1 K, x1 = 0.4108) of 38.58 ± 2.4 mPa·s, a mass density (323.1 K, x1 = 0.3555) of 1068.8 ± 1 kg/m3 and a mass density (323.1 K, x1 = 0.4108) of 1070.8 ± 1 kg/m3.

From the NIST ThermoML archive (doi:10.1016/j.jct.2014.04.016)
